Source: patent publication US10556878B2, “Thiourea compounds and their use as inhibitors of Sirt2 or Sirt5” (CORNELL UNIVERSITY, priority 2013, dated 2020)

Legend:
[1] = target: T1, Sirt5 (Homo sapiens, UniProt Q9NXA8); assay: sirtuin inhibition IC50, Sirt5-catalyzed desuccinylation; assay type: biochemical
T1 sequence (Q9NXA8 37-310): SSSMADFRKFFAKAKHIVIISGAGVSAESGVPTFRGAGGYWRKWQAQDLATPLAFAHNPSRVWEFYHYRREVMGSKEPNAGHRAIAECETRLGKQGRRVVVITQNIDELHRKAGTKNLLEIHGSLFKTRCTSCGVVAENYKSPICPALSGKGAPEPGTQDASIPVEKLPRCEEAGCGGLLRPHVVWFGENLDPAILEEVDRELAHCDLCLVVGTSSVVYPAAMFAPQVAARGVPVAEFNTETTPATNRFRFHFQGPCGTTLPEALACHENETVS

[2] = test system: MCF-7; assay: inhibition of MCF-7 cancer cells, crystal violet staining after 10 days; assay type: cell-based, human; conditions: 25, 50, 75, 100 μM
Protocol: 15,000 cells were seeded in each well and treated with 25, 50, 75, and 100 μM YC6-18 and YC6-18e. Media with the inhibitor/DMSO was changed every three days. Cells were stained with crystal violet after growing for 10 days. The results are shown in FIG. 5A (for YC-6-18) and FIG. 5B (for YC-6-18e).

[3] = target: T2, Sirt2 (Homo sapiens, UniProt Q8IXJ6); assay: sirtuin inhibition IC50, Sirt2; assay type: biochemical
T2 sequence (Q8IXJ6 1-389): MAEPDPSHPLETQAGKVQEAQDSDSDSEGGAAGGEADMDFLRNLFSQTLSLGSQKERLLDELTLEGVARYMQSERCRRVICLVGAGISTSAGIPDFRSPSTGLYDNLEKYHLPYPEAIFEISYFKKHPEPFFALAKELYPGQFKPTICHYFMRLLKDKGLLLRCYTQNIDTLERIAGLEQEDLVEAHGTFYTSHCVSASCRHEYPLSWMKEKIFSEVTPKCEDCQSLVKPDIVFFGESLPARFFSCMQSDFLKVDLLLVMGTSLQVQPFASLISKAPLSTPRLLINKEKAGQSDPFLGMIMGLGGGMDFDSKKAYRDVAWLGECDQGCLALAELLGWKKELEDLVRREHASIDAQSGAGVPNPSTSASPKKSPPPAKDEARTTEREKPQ

[4] = test system: HeLa cell lines; assay: protein succinylation Western blot in HeLa cells; assay type: cell-based; conditions: 100 μM, 24 and 48 hours
Protocol: FIGS. 3A and 3B show the results of treatment of HeLa cell lines with 100 μM YC6-18e at time points of 24 and 48 hours, and FIG. 3C is the structure of YC6-18e. […] The results reveal that treatment with Compound YC6-18e can increase protein lysine succinylation. It was observed that the loading is lower for 48 hours but the succinylation intensity is slightly higher.

[5] = target: T3, Sirt1 (Homo sapiens, UniProt Q96EB6); assay: sirtuin inhibition IC50, Sirt1; assay type: biochemical; conditions: Table 1; NI = no inhibition at 256 μM
T3 sequence (Q96EB6 1-747): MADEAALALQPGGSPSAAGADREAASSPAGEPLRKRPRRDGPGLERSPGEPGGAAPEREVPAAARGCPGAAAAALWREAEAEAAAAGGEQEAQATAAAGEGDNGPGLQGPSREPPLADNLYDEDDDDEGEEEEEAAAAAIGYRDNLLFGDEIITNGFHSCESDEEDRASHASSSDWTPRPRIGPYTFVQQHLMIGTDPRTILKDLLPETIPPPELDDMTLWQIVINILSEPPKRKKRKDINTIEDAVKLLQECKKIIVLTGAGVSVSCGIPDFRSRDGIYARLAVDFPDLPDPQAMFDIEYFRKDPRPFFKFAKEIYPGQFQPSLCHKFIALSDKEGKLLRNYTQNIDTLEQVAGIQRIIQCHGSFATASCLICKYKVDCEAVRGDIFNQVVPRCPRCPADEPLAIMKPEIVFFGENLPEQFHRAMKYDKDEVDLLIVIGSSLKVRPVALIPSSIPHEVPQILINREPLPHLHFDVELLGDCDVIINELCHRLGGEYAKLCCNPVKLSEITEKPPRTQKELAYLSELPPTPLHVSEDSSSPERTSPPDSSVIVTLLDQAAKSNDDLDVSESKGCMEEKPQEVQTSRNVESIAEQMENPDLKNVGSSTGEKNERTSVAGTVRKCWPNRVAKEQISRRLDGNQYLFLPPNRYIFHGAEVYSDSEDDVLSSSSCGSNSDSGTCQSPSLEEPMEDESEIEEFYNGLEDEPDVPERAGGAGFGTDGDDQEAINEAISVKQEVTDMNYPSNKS

[6] = target: T4, Sirt3 (Homo sapiens, UniProt Q9NTG7); assay: sirtuin inhibition IC50, Sirt3; assay type: biochemical; conditions: Table 1; NI = no inhibition at 256 μM
T4 sequence (Q9NTG7 1-399): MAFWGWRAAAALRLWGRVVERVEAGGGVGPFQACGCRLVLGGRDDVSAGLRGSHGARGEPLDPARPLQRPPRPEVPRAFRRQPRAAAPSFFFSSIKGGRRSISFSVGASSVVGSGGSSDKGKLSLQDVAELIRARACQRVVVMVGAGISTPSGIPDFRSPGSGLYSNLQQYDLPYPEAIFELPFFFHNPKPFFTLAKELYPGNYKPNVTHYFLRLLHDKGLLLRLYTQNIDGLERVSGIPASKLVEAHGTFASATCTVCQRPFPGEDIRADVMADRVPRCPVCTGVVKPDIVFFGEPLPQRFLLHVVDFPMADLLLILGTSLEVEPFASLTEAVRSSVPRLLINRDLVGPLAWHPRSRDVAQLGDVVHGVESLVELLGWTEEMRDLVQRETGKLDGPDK

[7] = target: T1, Sirt5; assay: LC-MS analysis of reaction mixture with Sirt5 and NAD (mechanism-based inhibition); assay type: biochemical; conditions: LC / MS detection
Protocol: To further confirm that the thiourea compound 5 is a mechanism-based inhibitor, the reaction mixture was analyzed by liquid chromatography-mass spectrometry (LC-MS). An ion with m/z of 1028.17 (corresponding to Compound 7a or protonated Compound 7b or 7c) was detected only when Compound 5 was incubated with both Sirt5 and NAD for 15 minutes, but not in negative controls without Sirt5 or NAD. In addition to Compound 7a or protonated Compound 7b or 7c, two new ions with m/z of 356.33 (corresponding to Compound 1) and 471.42 (corresponding to Compound 10) were also observed when Compound 5 was incubated with both Sirt5 and NAD, but not in negative controls without Sirt5 or NAD. Both Compounds 1 and 10 can be derived from the regular Sirt5-catalyzed deacylation reaction of Compound 7a (herein denoted as pathway A, as discussed in A. A. Sauve, et al., Annu. Rev. Biochem., 75, 435-465, 2006) or by an alternative hydrolysis pathway of 7a that is different from the regular sirtuin-catalyzed deacylation pathway (herein denoted as pathway B). […]
The foregoing results are likely responsible for Compound 3b being a less capable inhibitor of Sirt5 compared to Compound 5. […] The decomposition of the covalent intermediate occurs mainly through the Sirt5-catalyzed deacylation pathway A as the major product detected is Compound 1 with an m/z of 356.33.
The intermediate (7a/7b/7c) is readily detected by LC. […]

[8] = test system: MCF-7 cells; assay: foci formation, MCF-7; assay type: cell-based, human; conditions: tested at 10, 25, 50, 100 μM
Protocol: (§1) Each cancer cell line was assayed under the following six conditions: (1) untreated, (2) DMSO, (3) 15-2e at 10 μM, (4) 15-2e at 25 μM, (5) 15-2e at 50 μM, and (6) 15-2e at 100 μM.

[9] = test system: MDA-MB-231; assay: foci formation, MDA-MB-231; assay type: cell-based, human; conditions: tested at 10, 25, 50, 100 μM
Protocol: as §1

[10] = test system: MDA-MB-468; assay: foci formation, MDA-MB-468; assay type: cell-based, human; conditions: tested at 10, 25, 50, 100 μM
Protocol: as §1

[11] = Table 1, NI = no inhibition at 256 μM

With NS(=O)(=O)c1cc(C(=O)NC(CCCCNC(=S)NCCC(=O)O)C(=O)Nc2cccc(O)c2)ccc1Cl (stereo not shown) [YC6-14] as the compound, how does the IC50 ([1]; Table 2, NI = no inhibition) read?
Its IC50 is 3.05 µM.

How did the IC50 ([1]; Table 2, NI = no inhibition) turn out when O=C(O)CCNC(=S)NCCCCC(NC(=O)OCc1ccccc1)C(=O)Nc1cccc(O)c1 (stereo not shown) [Compound I5-2] was run?
Its IC50 is 0.89 µM.

How did the IC50 ([1]; Table 2, NI = no inhibition) turn out when CC(C)(C)OC(=O)NC(CCCCNC(=S)NCCC(=O)O)C(=O)Nc1cccc(O)c1 (stereo not shown) [YC6-09] was run?
The IC50 was 4.37 µM.

CCOC(=O)CCNC(=S)NCCCCC(NC(=O)OCc1ccccc1)C(=O)NC1CCSc2ccccc21 (stereo not shown) [YC6-18e] was tested. Which “killing of MCF-7 cells” value [2] did it give?
The value was “very effective in killing MCF-7 at 25 μM concentration”.

What about the IC50 ([1]; Table 2, NI = no inhibition) of the same compound?
The IC50 was over 167 µM.

And the IC50 ([3]; Table 2, NI = no inhibition)?
Its IC50 is 3.92 µM.

What about the “succinylation level on proteins” value [4] of the same compound?
The value was “increased the succinylation level on proteins at 24 and 48 hours”.

Which results are given for O=C(O)CCCC(=S)NCCCC[C@H](NC(=O)OCc1ccccc1)C(=O)Nc1ccccc1 [Compound 3b]?
IC50 [5]: > 256 µM; IC50 [1, 11]: 43 µM; IC50 [6]: > 256 µM; IC50 [3, 11]: > 256 µM; covalent intermediate with NAD in the presence of Sirt5 [7]: hardly detectable by LC

Which results are given for CCCCCCCNC(=S)NCCCCC(NC(=O)OCc1ccccc1)C(=O)Nc1ccccc1 (stereo not shown) [Compound 6]?
IC50 [5]: 64 µM; IC50 [1, 11]: > 256 µM; IC50 [3, 11]: 0.2 µM

Which IC50 ([1]; Table 2, NI = no inhibition) does the source give for O=C(O)CCNC(=S)NCCCCC(NC(=O)OCc1ccccc1)C(=O)Nc1ccc(O)cc1 (stereo not shown) [YC6-04] here?
The IC50 was 3.28 µM.

Which “concentration from which foci formation is inhibited” value [8] does the source give for CCOC(=O)CCNC(=S)NCCCCC(NC(=O)OCc1ccccc1)C(=O)Nc1cccc(O)c1 (stereo not shown) [Compound I5-2e] here?
The value was “about 25 μM”.

And the “concentration from which foci formation is inhibited” value [9]?
Its value is “about 25 μM”.

What about the IC50 ([1]; Table 2, NI = no inhibition) of the same compound?
The IC50 was over 200 µM.

What about the inhibition at 200 µM ([1]; Table 2, at 200 μM (footnote 3), read-out: inhibition of SIRT5 (in brackets under IC50)) of the same compound?
The inhibition at 200 µM was 30%.

What about the IC50 ([3]; Table 2, NI = no inhibition) of the same compound?
The IC50 was 7.05 µM.

What about the “concentration from which foci formation is inhibited” value [10] of the same compound?
Its value is “about 25 μM”.

O=C(O)CCNC(=S)NCCCCC(NC(=O)OCc1ccccc1)C(=O)Nc1ccccc1O (stereo not shown) [YC6-07] was tested. Which IC50 ([1]; Table 2, NI = no inhibition) did it give?
Its IC50 is 1.91 µM.

With O=C(O)CCC(=S)NCCCCC(NC(=O)OCc1ccccc1)C(=O)Nc1ccccc1 (stereo not shown) [Compound 3a, reference compound] as the compound, how does the IC50 [5] read?
The IC50 was over 256 µM.

What about the IC50 [1, 11] of the same compound?
The IC50 was over 500 µM.

What about the inhibition at 500 µM ([1]; at 500 μM) of the same compound?
The inhibition at 500 µM was 20%.

And the IC50 [6]?
The IC50 was over 256 µM.

What about the IC50 [3, 11] of the same compound?
Its IC50 is over 256 µM.

For CC(=O)NC(CCCCNC(=S)NCCC(=O)O)C(=O)Nc1cccc(O)c1 (stereo not shown) [YC6-17], which IC50 ([1]; Table 2, NI = no inhibition) is on record?
The IC50 was 13.6 µM.

For O=C(O)CCNC(=S)NCCCCC(NC(=O)OCc1ccccc1)C(=O)NC1CCSc2ccccc21 (stereo not shown) [YC6-18], which “killing of MCF-7 cells” value [2] is on record?
Its value is “almost no effect”.

What about the IC50 ([1]; Table 2, NI = no inhibition) of the same compound?
Its IC50 is 0.45 µM.
